{"source": "paper PMC5522996", "about": "“Big conductance calcium‐activated potassium channel openers control spasticity without sedation” (British Journal of Pharmacology, 2017)", "key": {"[1]": {"test_system": "Salmonella typhimurium and Escherichia coli strains", "assay": "Standard Ames test (summary)", "format": "cell-based", "protocol": "Strain of Organism Treatment Dose Revertants per plate\nFirst Mutation without Metabolic Stimulation\nSecond Mutation without Metabolic Stimulation\nVSN16R was incubated at various concentrations with either TA1535, TA1537, TA98 and TA100 strains of Salmonella typhimurium, which carry mutations in genes involved in histidine synthesis, and WP2uvvA Escherichia coli. The bacteria are spread on agar plates with limiting histidine content and incubated for 48 h. The number of histidine gene negative to positive revertants was assessed in two experiments. The results represent the mean ± SD. n=3/group. This was performed by Charles"}, "[2]": {"assay": "Phase I pharmacokinetics in healthy humans", "format": "in vivo, human", "protocol": "The stability of compounds when subjected to hepatic and plasma degradation was assessed in vitro by Inpharmatica, Cambridge, UK. Compounds (1 μM) were incubated with either pooled mouse liver microsomes (0.1 mg protein mL^−1) or pooled mouse plasma at 37°C for 0, 5, 10, 20 and 40 min before termination with acetonitrile containing warfarin as an analytical internal standard. Samples were centrifuged, and the resultant supernatant analysed for parent compound. The mass responses at baseline were taken as the 100% reference values against which the disappearance of the compound was measured. The natural log of the % remaining values was used to generate linear plots of disappearance of the compounds. Half‐life values were calculated from the slope of these plots. Hepatocyte metabolism was assessed by Cyprotex, Macclesfield, and 10 μM VSN16R was incubated with primary mouse, rat, monkey (Macaque) and human hepatocytes for 1 h, and the presence of metabolites was assessed using liquid […] mass spectroscopy. The stability of VSN16R was assessed in vivo by Inpharmatica, Cyprotex and Charles Rivers, Cambridge. Blood (plasma) samples were obtained prior to and 5 min to 24 h after drug administration of 2–5 mg·kg^−1 i.v. or 5 mg·kg^−1 p.o. VSN16R into outbred mice and rats (n = 3 per time point). In addition, plasma, brain and spinal cord samples were obtained from ABH with spastic EAE. Immediately after blood collection, the brain and spinal cord were removed and then stored at −20°C prior to assay. Tissue samples were weighed, homogenized and centrifuged, and the lysates generated. Brain lysates and plasma were assayed by LC–MS methods by Inpharmatica/Charles Rivers, Cambridge, UK. This was also performed using a Waters Xevo TQ or API4000, AB Sciex mass spectrometer using spiked samples as standards. PK Solutions Software (Summit Research Services, Montrose, CO, USA), AB Sciex Analyst software combined with Thermo Fisher Scientific Watson LIMS processing and reporting software or WinNonLin pharmacokinetic or PK solutions 2.0 software (Summit Research Services, Montrose CO, USA) were used to produce PK parameters. Data are expressed as mean ± SEM. The detection limit of VSN16R was 2 ng·mL^−1 in plasma and brain and 14 ng·mL^−1 in spinal cords."}, "Beagle dogs": {"test_system": "Beagle dogs", "assay": "Telemetry of heart rate and blood pressure in Beagle dogs", "format": "in vivo, dog", "protocol": "Parameter Time Vehicle 50mg/kg 100mg/kg 200mg/kg\nDiastolic Blood Pressure (mm Hg) 0 min 79 ± 4 83 ± 4 86 ± 4 87 ± 1\nAdult male Beagle dogs implanted previously with a DSI Physio Tel TL11-M2 D70-PCT intramuscular\ntelemetry device received either: 50mg/kg, 100mg/kg or 200mg/kg p.o. VSN16R in water or water.\nThe results represent the mean ± SD. n=4."}, "A2A": {"target": "T1, A2A (Homo sapiens, UniProt P29274)", "T1 construct": "purchased Cerep; Chantest; DiscoveRx; Multispan; MDS Pharma Services", "T1 sequence (P29274 whole entry)": "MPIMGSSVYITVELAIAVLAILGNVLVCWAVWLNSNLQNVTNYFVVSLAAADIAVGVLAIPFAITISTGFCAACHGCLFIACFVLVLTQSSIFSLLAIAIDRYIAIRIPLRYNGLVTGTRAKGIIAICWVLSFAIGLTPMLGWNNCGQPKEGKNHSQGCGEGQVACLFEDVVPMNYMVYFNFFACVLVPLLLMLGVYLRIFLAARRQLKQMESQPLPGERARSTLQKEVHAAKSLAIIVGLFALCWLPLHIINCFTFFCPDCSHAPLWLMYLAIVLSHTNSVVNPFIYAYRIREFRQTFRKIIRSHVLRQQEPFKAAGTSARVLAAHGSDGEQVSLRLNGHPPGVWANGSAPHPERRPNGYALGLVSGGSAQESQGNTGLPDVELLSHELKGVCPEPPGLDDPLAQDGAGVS", "assay": "Receptor binding profile of VSN16R", "conditions": "10µM VSN16R"}, "A3": {"target": "T2, A3 (Homo sapiens, UniProt P0DMS8)", "T2 construct": "purchased Cerep; Chantest; DiscoveRx; Multispan; MDS Pharma Services", "T2 sequence (P0DMS8 whole entry)": "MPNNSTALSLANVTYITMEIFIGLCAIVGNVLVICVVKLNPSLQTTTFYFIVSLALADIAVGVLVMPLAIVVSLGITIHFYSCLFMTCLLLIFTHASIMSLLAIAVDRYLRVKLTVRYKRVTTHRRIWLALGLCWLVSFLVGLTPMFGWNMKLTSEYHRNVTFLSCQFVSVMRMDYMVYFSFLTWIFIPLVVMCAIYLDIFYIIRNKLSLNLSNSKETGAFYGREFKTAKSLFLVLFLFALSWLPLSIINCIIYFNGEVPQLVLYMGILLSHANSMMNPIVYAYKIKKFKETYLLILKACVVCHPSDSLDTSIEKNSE", "assay": "Receptor binding profile of VSN16R", "conditions": "10µM VSN16R"}, "α2(non-selective)": {"test_system": "α2(non-selective)", "assay": "Receptor binding profile of VSN16R", "design": "species or system human", "conditions": "10µM VSN16R"}, "CCKA": {"target": "T3, CCKA (Homo sapiens, UniProt P32238)", "T3 construct": "purchased Cerep; Chantest; DiscoveRx; Multispan; MDS Pharma Services", "T3 sequence (P32238 whole entry)": "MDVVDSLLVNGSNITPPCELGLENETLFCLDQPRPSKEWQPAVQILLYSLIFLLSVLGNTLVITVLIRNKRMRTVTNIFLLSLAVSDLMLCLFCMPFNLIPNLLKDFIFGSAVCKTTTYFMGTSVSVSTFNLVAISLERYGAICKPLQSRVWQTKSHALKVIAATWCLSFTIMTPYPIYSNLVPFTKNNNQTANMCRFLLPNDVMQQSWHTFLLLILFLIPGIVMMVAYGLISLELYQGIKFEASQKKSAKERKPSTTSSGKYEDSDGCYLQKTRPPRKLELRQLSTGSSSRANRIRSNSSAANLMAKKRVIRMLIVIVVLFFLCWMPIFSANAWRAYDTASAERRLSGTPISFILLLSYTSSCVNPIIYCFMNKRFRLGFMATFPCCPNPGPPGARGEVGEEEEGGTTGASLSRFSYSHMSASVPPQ", "assay": "Receptor binding profile of VSN16R", "conditions": "10µM VSN16R"}, "CB1": {"target": "T4, CB1 (Homo sapiens, UniProt P21554)", "T4 construct": "purchased Cerep; Chantest; DiscoveRx; Multispan; MDS Pharma Services", "T4 sequence (P21554 whole entry)": "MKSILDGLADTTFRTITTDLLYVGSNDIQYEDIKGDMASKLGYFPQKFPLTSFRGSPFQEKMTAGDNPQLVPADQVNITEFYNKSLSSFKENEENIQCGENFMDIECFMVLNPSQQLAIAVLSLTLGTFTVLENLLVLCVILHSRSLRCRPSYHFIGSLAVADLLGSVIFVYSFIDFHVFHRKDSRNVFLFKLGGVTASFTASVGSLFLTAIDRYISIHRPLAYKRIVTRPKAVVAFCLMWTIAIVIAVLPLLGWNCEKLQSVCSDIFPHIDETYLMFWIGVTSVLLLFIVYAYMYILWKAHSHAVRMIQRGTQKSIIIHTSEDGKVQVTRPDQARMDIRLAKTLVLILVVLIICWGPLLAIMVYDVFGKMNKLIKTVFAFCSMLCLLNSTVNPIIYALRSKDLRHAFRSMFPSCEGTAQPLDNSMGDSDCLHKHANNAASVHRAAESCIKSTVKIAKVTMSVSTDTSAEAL", "assay": "Receptor binding profile of VSN16R"}, "M3": {"target": "T5, M3 (Homo sapiens, UniProt P20309)", "T5 construct": "purchased Cerep; Chantest; DiscoveRx; Multispan; MDS Pharma Services", "T5 sequence (P20309 whole entry)": "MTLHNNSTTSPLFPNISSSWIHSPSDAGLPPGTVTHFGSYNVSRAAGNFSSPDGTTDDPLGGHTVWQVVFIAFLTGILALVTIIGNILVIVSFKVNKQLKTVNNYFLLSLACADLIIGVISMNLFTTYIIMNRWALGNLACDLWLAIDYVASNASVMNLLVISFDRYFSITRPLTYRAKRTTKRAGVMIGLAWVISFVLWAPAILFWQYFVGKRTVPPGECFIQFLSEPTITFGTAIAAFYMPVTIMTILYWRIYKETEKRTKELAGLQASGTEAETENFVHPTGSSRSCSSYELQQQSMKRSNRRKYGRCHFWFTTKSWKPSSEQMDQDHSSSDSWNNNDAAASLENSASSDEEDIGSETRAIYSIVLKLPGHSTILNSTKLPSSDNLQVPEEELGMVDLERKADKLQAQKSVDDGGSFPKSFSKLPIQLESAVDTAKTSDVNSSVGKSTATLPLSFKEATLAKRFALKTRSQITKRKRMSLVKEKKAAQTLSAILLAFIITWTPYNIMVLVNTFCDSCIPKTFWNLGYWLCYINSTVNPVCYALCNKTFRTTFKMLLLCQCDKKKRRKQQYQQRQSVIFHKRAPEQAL", "assay": "Receptor binding profile of VSN16R", "conditions": "10µM VSN16R"}, "μ": {"target": "T6, μ (Homo sapiens, UniProt P35372)", "T6 construct": "purchased Cerep; Chantest; DiscoveRx; Multispan; MDS Pharma Services", "T6 sequence (P35372 whole entry)": "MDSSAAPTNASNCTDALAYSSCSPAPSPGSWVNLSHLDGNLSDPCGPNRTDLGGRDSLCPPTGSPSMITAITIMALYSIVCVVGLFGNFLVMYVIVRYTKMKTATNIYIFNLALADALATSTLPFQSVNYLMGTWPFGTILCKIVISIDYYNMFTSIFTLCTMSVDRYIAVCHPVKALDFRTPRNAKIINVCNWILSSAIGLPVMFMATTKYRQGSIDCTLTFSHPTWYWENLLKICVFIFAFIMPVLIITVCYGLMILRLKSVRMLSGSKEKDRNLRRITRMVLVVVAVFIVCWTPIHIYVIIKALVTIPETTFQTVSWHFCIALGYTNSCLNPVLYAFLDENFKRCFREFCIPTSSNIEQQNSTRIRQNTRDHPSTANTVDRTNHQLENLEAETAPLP", "assay": "Receptor binding profile of VSN16R", "conditions": "10µM VSN16R"}, "5-HT2A": {"target": "T7, 5-HT2A (Homo sapiens, UniProt P28223)", "T7 construct": "purchased Cerep; Chantest; DiscoveRx; Multispan; MDS Pharma Services", "T7 sequence (P28223 whole entry)": "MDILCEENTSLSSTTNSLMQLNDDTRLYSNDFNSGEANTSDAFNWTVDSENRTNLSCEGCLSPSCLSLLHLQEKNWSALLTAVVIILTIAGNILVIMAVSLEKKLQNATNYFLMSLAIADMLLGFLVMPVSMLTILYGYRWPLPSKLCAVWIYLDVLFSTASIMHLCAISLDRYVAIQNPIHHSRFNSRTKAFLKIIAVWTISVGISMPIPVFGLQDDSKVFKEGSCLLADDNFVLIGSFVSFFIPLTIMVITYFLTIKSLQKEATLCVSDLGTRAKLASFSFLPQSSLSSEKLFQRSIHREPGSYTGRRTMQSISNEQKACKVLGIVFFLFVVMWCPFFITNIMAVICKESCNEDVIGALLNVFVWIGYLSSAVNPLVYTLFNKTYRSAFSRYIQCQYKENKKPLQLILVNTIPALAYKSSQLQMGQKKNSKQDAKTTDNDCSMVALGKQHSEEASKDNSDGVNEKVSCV", "assay": "Receptor binding profile of VSN16R", "conditions": "10µM VSN16R"}, "V1a": {"target": "T8, V1a (Homo sapiens, UniProt P37288)", "T8 construct": "purchased Cerep; Chantest; DiscoveRx; Multispan; MDS Pharma Services", "T8 sequence (P37288 whole entry)": "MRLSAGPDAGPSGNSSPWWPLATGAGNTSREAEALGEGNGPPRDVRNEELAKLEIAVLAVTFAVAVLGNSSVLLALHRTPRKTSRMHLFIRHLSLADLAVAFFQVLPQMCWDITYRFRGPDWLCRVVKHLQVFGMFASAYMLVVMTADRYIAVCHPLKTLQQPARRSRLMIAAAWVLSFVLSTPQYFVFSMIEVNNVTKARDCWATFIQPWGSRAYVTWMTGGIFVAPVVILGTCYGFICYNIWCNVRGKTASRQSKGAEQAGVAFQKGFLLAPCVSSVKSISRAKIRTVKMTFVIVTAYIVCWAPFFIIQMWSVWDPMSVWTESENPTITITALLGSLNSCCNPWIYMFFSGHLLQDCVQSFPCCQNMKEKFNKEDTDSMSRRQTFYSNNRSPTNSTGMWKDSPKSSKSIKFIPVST", "assay": "Receptor binding profile of VSN16R", "conditions": "10µM VSN16R"}, "Na+ channel (site 2)": {"test_system": "Na+ channel (site 2)", "assay": "Receptor binding profile of VSN16R", "design": "species or system human", "conditions": "10µM VSN16R"}, "GPR12": {"target": "T9, GPR12 (Homo sapiens, UniProt P47775)", "T9 construct": "purchased Cerep; Chantest; DiscoveRx; Multispan; MDS Pharma Services", "T9 sequence (P47775 whole entry)": "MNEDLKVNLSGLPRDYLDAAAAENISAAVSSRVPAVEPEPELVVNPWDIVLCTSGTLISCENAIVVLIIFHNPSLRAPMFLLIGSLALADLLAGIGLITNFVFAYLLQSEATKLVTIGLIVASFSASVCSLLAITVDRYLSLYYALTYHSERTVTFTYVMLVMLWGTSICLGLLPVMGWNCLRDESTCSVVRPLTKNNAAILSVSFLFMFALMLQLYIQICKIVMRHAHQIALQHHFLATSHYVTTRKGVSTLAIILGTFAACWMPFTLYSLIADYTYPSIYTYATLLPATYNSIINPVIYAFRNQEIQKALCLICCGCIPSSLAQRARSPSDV", "assay": "Receptor binding profile of VSN16R", "conditions": "10µM VSN16R"}, "EDG7": {"target": "T10, EDG7 (Homo sapiens, UniProt Q9UBY5)", "T10 construct": "purchased Cerep; Chantest; DiscoveRx; Multispan; MDS Pharma Services", "T10 sequence (Q9UBY5 whole entry)": "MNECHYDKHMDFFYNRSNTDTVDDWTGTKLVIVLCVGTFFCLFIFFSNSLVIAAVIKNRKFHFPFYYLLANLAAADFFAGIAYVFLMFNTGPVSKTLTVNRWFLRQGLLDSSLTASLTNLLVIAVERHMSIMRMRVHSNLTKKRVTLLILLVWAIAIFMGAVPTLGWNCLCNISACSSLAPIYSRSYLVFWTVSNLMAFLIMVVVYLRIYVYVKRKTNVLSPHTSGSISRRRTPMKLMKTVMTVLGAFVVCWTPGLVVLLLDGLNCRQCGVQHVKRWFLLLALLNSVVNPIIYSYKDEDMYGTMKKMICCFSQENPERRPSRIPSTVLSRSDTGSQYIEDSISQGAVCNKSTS", "assay": "Receptor binding profile of VSN16R", "conditions": "10µM VSN16R"}, "GABAA": {"test_system": "GABAA", "assay": "Receptor binding profile of VSN16R", "design": "species or system human", "conditions": "10µM VSN16R"}, "[3]": {"target": "CYP450 1A2 (Homo sapiens)", "sequence (P11511 whole entry)": "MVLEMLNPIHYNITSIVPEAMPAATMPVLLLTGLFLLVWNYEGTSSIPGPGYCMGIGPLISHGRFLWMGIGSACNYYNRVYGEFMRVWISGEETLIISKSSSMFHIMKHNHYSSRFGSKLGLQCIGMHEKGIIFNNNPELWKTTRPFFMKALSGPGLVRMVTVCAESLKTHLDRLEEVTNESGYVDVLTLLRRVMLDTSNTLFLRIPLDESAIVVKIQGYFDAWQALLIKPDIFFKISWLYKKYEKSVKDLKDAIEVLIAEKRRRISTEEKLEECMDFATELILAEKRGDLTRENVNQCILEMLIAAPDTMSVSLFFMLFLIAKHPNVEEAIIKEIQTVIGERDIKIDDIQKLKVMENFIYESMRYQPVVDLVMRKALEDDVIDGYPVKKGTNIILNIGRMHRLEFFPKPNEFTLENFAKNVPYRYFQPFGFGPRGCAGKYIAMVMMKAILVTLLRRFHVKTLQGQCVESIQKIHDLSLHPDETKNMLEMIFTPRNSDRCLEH", "excerpt": "IC50 Inhibition of substrate binding\nInhibition of binding of either 3-cyano-7-ethoxycoumarin, dibenzylfluorescein or 7-benzyoxy-4-\n(trifluoromethyl) coumarin in human enzyme transfected BTI NN-5B1-4 cells or Sf9 insect cells or\ninhibition of dextromethorphan substrate to CYP450 2D6 in liver microsomes."}, "mice": {"test_system": "mice", "assay": "Visible sedation, behaviour and tolerability in mice"}, "[4]": {"conditions": "1 g·kg^−1 p.o. daily for 5 days"}}}
{"smiles": "C[C@H](CO)NC(=O)c1cccc(/C=C\\CCCC(=O)N(C)C)c1", "note": "[VSN16R]", "values": [{"measurement": "Mutagenesis in a standard Ames test", "setting": "[1]", "value": "no evidence of mutagenesis"}, {"measurement": "Effect of feeding on pharmacokinetics", "setting": "[2]; 200 mg p.o., fed within 0.5 h of dosing", "value": "delayed the time of the Cmax (Tmax) and reduced Cmax"}, {"measurement": "concentration at 1 week", "setting": "[2]; male, human, plasma, oral, twice daily dosing of VSN16R, read-out: Steady‐state plasma levels", "value": "> 100", "unit": "nM"}, {"measurement": "bioavailability", "setting": "[2]; male, human, plasma, po, 25 mg p.o.", "value": 100, "unit": "%"}, {"measurement": "Terminal elimination", "setting": "[2]; over the dose range studied, 25–800 mg", "value": "3.4 to 4.9", "unit": "h"}, {"measurement": "Arterial Pressure", "setting": "Beagle dogs; 50mg/kg p.o., 30min", "value": "97 ± 5", "unit": "mm Hg"}, {"measurement": "Diastolic Blood Pressure", "setting": "Beagle dogs; 50mg/kg p.o., 30min", "value": "83 ± 4", "unit": "mm Hg"}, {"measurement": "Heart Rate", "setting": "Beagle dogs; 50mg/kg p.o., 30min", "value": "104 ± 9", "unit": "bpm"}, {"measurement": "Systolic Blood Pressure", "setting": "Beagle dogs; 50mg/kg p.o., 30min", "value": "141 ± 6", "unit": "mm Hg"}, {"measurement": "Arterial Pressure", "setting": "Beagle dogs; 50mg/kg p.o., 60min", "value": "106 ± 5", "unit": "mm Hg"}, {"measurement": "Diastolic Blood Pressure", "setting": "Beagle dogs; 50mg/kg p.o., 60min", "value": "87 ± 4", "unit": "mm Hg"}, {"measurement": "Heart Rate", "setting": "Beagle dogs; 50mg/kg p.o., 60min", "value": "119 ± 9", "unit": "bpm"}, {"measurement": "Systolic Blood Pressure", "setting": "Beagle dogs; 50mg/kg p.o., 60min", "value": "143 ± 6", "unit": "mm Hg"}, {"measurement": "Arterial Pressure", "setting": "Beagle dogs; 100mg/kg p.o., 30min", "value": "99 ± 5", "unit": "mm Hg"}, {"measurement": "Diastolic Blood Pressure", "setting": "Beagle dogs; 100mg/kg p.o., 30min", "value": "86 ± 4", "unit": "mm Hg"}, {"measurement": "Heart Rate", "setting": "Beagle dogs; 100mg/kg p.o., 30min", "value": "114 ± 9", "unit": "bpm"}, {"measurement": "Systolic Blood Pressure", "setting": "Beagle dogs; 100mg/kg p.o., 30min", "value": "139 ± 6", "unit": "mm Hg"}, {"measurement": "Arterial Pressure", "setting": "Beagle dogs; 100mg/kg p.o., 60min", "value": "106 ± 5", "unit": "mm Hg"}, {"measurement": "Diastolic Blood Pressure", "setting": "Beagle dogs; 100mg/kg p.o., 60min", "value": "91 ± 4", "unit": "mm Hg"}, {"measurement": "Heart Rate", "setting": "Beagle dogs; 100mg/kg p.o., 60min", "value": "111 ± 9", "unit": "bpm"}, {"measurement": "Systolic Blood Pressure", "setting": "Beagle dogs; 100mg/kg p.o., 60min", "value": "138 ± 6", "unit": "mm Hg"}, {"measurement": "Arterial Pressure", "setting": "Beagle dogs; 200mg/kg p.o., 30min", "value": "97 ± 5", "unit": "mm Hg"}, {"measurement": "Diastolic Blood Pressure", "setting": "Beagle dogs; 200mg/kg p.o., 30min", "value": "87 ± 1", "unit": "mm Hg"}, {"measurement": "Heart Rate", "setting": "Beagle dogs; 200mg/kg p.o., 30min", "value": "125 ± 9", "unit": "bpm"}, {"measurement": "Systolic Blood Pressure", "setting": "Beagle dogs; 200mg/kg p.o., 30min", "value": "130 ± 6", "unit": "mm Hg"}, {"measurement": "Arterial Pressure", "setting": "Beagle dogs; 200mg/kg p.o., 60min", "value": "102 ± 5", "unit": "mm Hg"}, {"measurement": "Diastolic Blood Pressure", "setting": "Beagle dogs; 200mg/kg p.o., 60min", "value": "88 ± 4", "unit": "mm Hg"}, {"measurement": "Heart Rate", "setting": "Beagle dogs; 200mg/kg p.o., 60min", "value": "134 ± 9", "unit": "bpm"}, {"measurement": "Systolic Blood Pressure", "setting": "Beagle dogs; 200mg/kg p.o., 60min", "value": "130 ± 6", "unit": "mm Hg"}, {"measurement": "Cardiovascular issues", "setting": "Beagle dogs; dog, in vivo", "value": "no cardiovascular issues"}, {"measurement": "Hypotension", "setting": "Beagle dogs; dogs", "value": "did not induce hypotension"}, {"measurement": "Activity", "setting": "A2A", "value": "Negligible Activity"}, {"measurement": "Activity", "setting": "A3", "value": "Negligible Activity"}, {"measurement": "Activity", "setting": "α2(non-selective)", "value": "Negligible Activity"}, {"measurement": "Activity", "setting": "CCKA", "value": "Negligible Activity"}, {"measurement": "Activity", "setting": "CB1; 10µM VSN16R", "value": "Negligible Activity"}, {"measurement": "Binding or agonism at CB1 receptors", "setting": "CB1; receptor‐transfected cell line‐based assays", "value": "does not bind to or agonize"}, {"measurement": "Activity", "setting": "M3", "value": "Negligible Activity"}, {"measurement": "Activity", "setting": "μ", "value": "Negligible Activity"}, {"measurement": "Activity", "setting": "5-HT2A", "value": "Negligible Activity"}, {"measurement": "Activity", "setting": "V1a", "value": "Negligible Activity"}, {"measurement": "Activity", "setting": "Na+ channel (site 2)", "value": "Negligible Activity"}, {"measurement": "Activity", "setting": "GPR12", "value": "Negligible Activity"}, {"measurement": "Activity", "setting": "EDG7", "value": "Negligible Activity"}, {"measurement": "Activity", "setting": "GABAA", "value": "Negligible Activity"}, {"measurement": "IC50", "setting": "[3]", "value": "> 10", "unit": "µM"}, {"measurement": "Overt behavioural effects or toxicity", "setting": "mice; [4]", "value": "failed to show any overt behavioural effects or toxicity"}, {"measurement": "Weight loss", "setting": "mice; [4]", "value": "no drug‐induced weight loss"}, {"measurement": "Tolerated dose", "setting": "mice; p.o., mice", "value": 1000, "unit": "mg/kg"}, {"measurement": "Visible evidence of sedation", "setting": "mice; up to 30 mg·kg^−1 i.v. in PBS", "value": "failed to show any visible evidence of sedation"}]}
